In ChEMBL document CHEMBL1201862, “PubChem BioAssay data set” (2004):
Active and inactive are the calls of the source. Cut-off read from the data, not from the text of the source: actives have a measured IC50 and inactives only a lower limit.

Tests used:
[1] = target: T1, Sentrin-specific protease 7 (Homo sapiens, UniProt Q9BQF6); type: functional;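 note: Luminescence-based dose-response confirmation of ultra-high-throughput screening hits, measuring inhibition of SENP7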
T1 sequence (Q9BQF6 whole entry): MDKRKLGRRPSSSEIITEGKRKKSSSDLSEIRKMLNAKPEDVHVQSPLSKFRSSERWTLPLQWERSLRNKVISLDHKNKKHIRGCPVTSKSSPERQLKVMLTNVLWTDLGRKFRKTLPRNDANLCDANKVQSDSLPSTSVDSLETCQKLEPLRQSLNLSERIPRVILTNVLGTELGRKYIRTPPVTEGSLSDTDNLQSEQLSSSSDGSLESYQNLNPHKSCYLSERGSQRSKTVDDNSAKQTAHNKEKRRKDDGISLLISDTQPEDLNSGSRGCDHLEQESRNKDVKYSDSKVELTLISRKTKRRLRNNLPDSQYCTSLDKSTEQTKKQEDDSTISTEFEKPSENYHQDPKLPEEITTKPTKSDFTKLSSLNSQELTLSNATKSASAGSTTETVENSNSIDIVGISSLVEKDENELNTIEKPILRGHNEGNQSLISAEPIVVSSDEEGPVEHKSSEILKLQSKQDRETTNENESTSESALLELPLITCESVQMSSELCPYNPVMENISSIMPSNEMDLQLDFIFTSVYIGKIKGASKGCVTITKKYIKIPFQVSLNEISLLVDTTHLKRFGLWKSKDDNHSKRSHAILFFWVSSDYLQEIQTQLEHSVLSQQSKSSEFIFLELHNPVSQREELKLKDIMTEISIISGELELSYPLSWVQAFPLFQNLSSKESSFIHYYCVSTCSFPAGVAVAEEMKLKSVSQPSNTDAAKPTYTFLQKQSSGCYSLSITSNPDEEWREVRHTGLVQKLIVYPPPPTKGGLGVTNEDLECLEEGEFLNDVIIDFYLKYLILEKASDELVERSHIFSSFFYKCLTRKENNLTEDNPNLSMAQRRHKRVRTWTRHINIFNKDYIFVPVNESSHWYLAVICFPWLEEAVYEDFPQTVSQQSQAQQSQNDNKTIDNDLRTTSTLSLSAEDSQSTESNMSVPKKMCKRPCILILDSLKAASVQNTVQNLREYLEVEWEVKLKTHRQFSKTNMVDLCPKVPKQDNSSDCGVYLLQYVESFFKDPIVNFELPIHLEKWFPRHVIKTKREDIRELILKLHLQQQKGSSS

[2] = target: T2, Ubiquitin-conjugating enzyme E2 N (Homo sapiens, UniProt P61088); type: functional
T2 sequence (P61088 whole entry): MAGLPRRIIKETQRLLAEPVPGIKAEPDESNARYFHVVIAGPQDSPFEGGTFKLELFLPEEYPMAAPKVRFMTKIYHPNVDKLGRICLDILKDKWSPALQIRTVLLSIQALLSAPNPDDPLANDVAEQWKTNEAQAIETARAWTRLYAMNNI

Compound | IC50 [1] | IC50 [2]
N#Cc1c(NC(=O)c2ccc(Br)o2)n(-c2ccccc2)c2nc3ccccc3nc12 | 3.69 µM (active) | 
CCOC(=O)c1c(-c2ccc(-c3ccccc3)cc2)csc1NC(=O)CNCCN(C)C |  | 10.1 µM (active)
